SMILES strings stand for the structures.

Experiment [1] addresses T1, Ras farnesyl transferase (Homo sapiens, UniProt P49354+P49356).
T1 construct: made in house
Briefly: in vitro inhibitory activity for Ras farnesyl transferase, K-Ras substrate. The settings on record: recombinant Ras farnesyl transferase, K-Ras substrate; read-out: K-Ras IC50. In kind it is biochemical. As to the method:
In the present experiment, Ras farnesyl transferase produced by genetic recombination techniques according to the improved Pompliano's method (Pompliano et al., Biochemistry, 1992, 31, 3800) was used, […] Appln. No. 97-14409 was used after it has been purified according to the known method(see, Chung et al., Biochimica et Biophysica Acta, 1992, 278, 1129).
(§1) The enzyme reaction was performed in 50 μl of 50 mM Soduam HEPES buffer solution containing 25 mM of potassium chloride, 25 mM of magnesium chloride, 10 mM of DTT and 50 μM of zinc chloride. 1.5 μM of Ras substrate protein, 0.15 μM of tritium-farnesylpyrophosphate and 4.5 nM of farnesyl transferase were used.
(§2) More specifically, in the initial step, farnesyl transferase was added to the above buffer solution, reaction was maintained for 30 minutes at 37° C. and then the reaction was stopped by adding 1 ml of ethanol solution containing 1M HCl. The formed precipitates were adsorbed to GF/B filter using Hopper harvestor(Hopper #FH 225V) for filter-binding, washed with ethanol, and then radioactivity of the dried filter was measured using LKB β counter. Enzyme titer was measured in the unsaturated state of substrate where the concentrations of Ras substrate protein and farnesyl transferase have quantitative relationship. The compound according to the present invention dissolved in dimethyl sulfoxide(DMSO) was added to the reaction solution in an amount of less than 5% of the total reaction solution, and then the enzyme inhibitory activity thereof was measured. The enzyme inhibitory activity was represented by percentage of the amount of farnesyl incorporated into the Ras substrate protein in the presence of the test compound to that in the absence of the test compound. IC50 of the test compound was defined as the concentration at which 50% of the enzyme activity was inhibited.

The target of experiment [2] is T2, Ras farnesyl transferase (Rattus norvegicus, UniProt Q02293+Q04631).
T2 construct: endogenous in cells; host or cells: Rat2 fibroblasts transformed with C-Harvey-Ras, or with H-Ras carrying the K-Ras C-terminal polybasic lysine domain
Kind of experiment: in vivo (cellular) Ras farnesyl transferase inhibitory activity, Rat2 cells expressing C-Harvey-Ras. The settings on record: Rat2 cell line expressing C-Harvey-Ras; concentration inhibiting 50% of farnesyl binding of Ras protein; read-out: H-Ras CIC50. In kind it is cell-based. As to the method: (§3) In the present experiment, Rat2 cell line which expresses C-Harvey-Ras protein having transforming activity and Rat2 cell line(Korean patent application No. 97-14409) which is transformed with fused protein of H-Ras substituted with polybasic lysine domain at C-terminus of K-Ras were used. The experiment was performed by the modified Declue's method(Declue. J. E. et al., Cancer Research, 1991, 51, 712). Hereinafter, the experimental method will be described in more detail.
(§4) 3×10^5 cells of transformed Rat2 fibroblast cell line were sprayed on 60 mm cell cultivation dish and cultivated for 48 hours in a cell incubator at 37° C. and after 50% or more of density was reached, it was treated with the test compounds. The compound according to the present invention dissolved in dimethylsulfoxide(DMSO) was used. 1% concentration of dimethylsulfoxide was used in both control and test groups. After 4 hours from the treatment with the compound, methionine labeled with 150 μCi of radioactive isotope [^35S] per 1 ml of medium was added and after cultivating for 20 hours, the cells were washed with physiological saline water. The cells were lysed using 1 ml of cold cell lysis buffer solution(50 mM of Sodium HEPES buffer solution containing 5 mM of magnesium chloride, 1 mM of DTT, 1% NP 40, 1 mM of EDTA, 1 mM of PMSF, 2 μM of leupeptin, 2 μM of pepstatin A and 2 μM of antipain) and the supernatant wherein the cells were lysed was obtained by high-velocity centrifugation of 12,000 g×5 minutes. The amount of radioisotope in the supernatant was measured and standardized to obtain a quantitative result in immunoprecipitation reaction and then, Y13-259, a monoclonal antiboby specifically binding to Ras protein(Furth, M. E. et al., J. Virol, 1982, 43, 294) was added and reacted for 15 hours at 4° C. Protein A(combined with goat anti-murine imunoglobulin antibody)-agarose suspension was added to the solution and reacted for 1 hour at 4° C. and then, to remove the unspecific binding product, immunoprecipitates were washed with a buffer solution (50 mM Tris chloride buffer solution containing 50 mM of sodium chloride, 0.5% of sodium dioxycholate, 0.5% of NP 40 and 0.1% of SDS). The precipitates were added to a buffer solution for electrophoresis and boiled and then, electrophoresis was performed using 13.5% of SDS polyacrylamide gel. After electrophoresis, the gel was fixed and dried. Then, the gel was exposed to X-ray film, developed and printed. From the result of the experiment, intensities of band of protein combined with or without farnesyl of Ras protein were measured, and the concentration of the test compound inhibiting 50% of farnesyl binding was defined as CIC50, an in vivo Ras farnesyl transferase inhibitory activity.

Experiment [3] concerns the target T1, Ras farnesyl transferase. Kind of experiment: in vitro inhibitory activity for Ras farnesyl transferase, H-Ras substrate. In kind it is biochemical. The settings on record: recombinant Ras farnesyl transferase, H-Ras substrate, tritium-farnesylpyrophosphate, 30 minutes at 37° C.; read-out: H-Ras IC50. How it is done: In the present experiment, Ras farnesyl transferase produced by genetic recombination techniques according to the improved Pompliano's method (Pompliano et al., Biochemistry, 1992, 31, 3800) was used, and Ras substrate(Ras-CVLS) protein described in Korean Patent Appln. No. 97-14409 was used after it has been purified according to the known method(see, Chung et al., Biochimica et Biophysica Acta, 1992, 278, 1129).
as §1, §2

Experiment [4] deals with T2, Ras farnesyl transferase. Briefly: in vivo (cellular) Ras farnesyl transferase inhibitory activity, Rat2 cells transformed with H-Ras fused with polybasic lysine domain of K-Ras. In kind it is cell-based. The settings on record: Rat2 cell line transformed with H-Ras substituted with polybasic lysine domain at C-terminus of K-Ras; concentration inhibiting 50% of farnesyl binding; read-out: K-Ras CIC50. How it is done: as §3, §4

Regarding `COCCN(C)C(=O)c1cn(Cc2cncn2CC2CCN(C(=O)COc3ccccc3)CC2)cc1-c1cccc2ccccc12` [Compound 14, 3-[N-(2-Methoxyethyl)-N-methyl]carbamoyl-4-(naphthalen-1-yl)-1-[1-(1-phenoxyacetyl-piperidin-4-ylmethyl)-1H-imidazol-5-ylmethyl]-1H-pyrrole], the IC50 was 10 to 1000 nM in experiment [1], 10 to 100 nM in experiment [2], 2.1 nM in experiment [3] and 1000 to 50000 nM in experiment [4].
As for `COCCN(C)C(=O)c1cn(Cc2cncn2CC2CCN(C(=O)CCc3ccccc3)CC2)cc1-c1cccc2ccccc12` [Compound 15, 3-[N-(2-Methoxyethyl)-N-methyl]carbamoyl-4-(naphthalen-1-yl)-1-{1-[1-(2-phenylethylcarbonyl)-piperidin-4-ylmethyl]-1H-imidazol-5-ylmethyl}-1H-pyrrole], the IC50 is 10 to 1000 nM in experiment [1], 10 to 100 nM in experiment [2], 1 nM in experiment [3] and 1000 to 50000 nM in experiment [4].
As for `COCCN(C)C(=O)c1cn(Cc2cncn2CC2CCN(C(=O)Cc3ccc(-c4ccccc4)cc3)CC2)cc1-c1cccc2ccccc12` [Compound 16, 1-{1-[1-(4-Biphenylacetyl)-piperidin-4-ylmethyl]-1H-imidazol-5-ylmethyl}-3-[N-(2-methoxyethyl)-N-methyl]carbamoyl-4-(naphthalen-1-yl)-1H-pyrrole], the IC50 in experiment [1] lay in the range of 10 to 1000 nM; in experiment [2], 10 to 100 nM; in experiment [3], 1 to 10 nM; in experiment [4], 1000 to 50000 nM.
Regarding `COCCN(C)C(=O)c1cn(Cc2cncn2CC2CCN(C(=O)OC)CC2)cc1-c1cccc2ccccc12` [Compound 17, 1-[1-(1-Methoxycarbonyl-piperidin-4-ylmethyl)-1H-imidazol-5-ylmethyl]-3[N-(2-methoxyethyl)-N-methyl]carbamoyl-4-(naphthalen-1-yl)-1H-pyrrole], the IC50 in experiment [1] fell in the range of 10 to 1000 nM; in experiment [2], 10 to 100 nM; in experiment [3], 1 to 10 nM; in experiment [4] it was 10000 to 100000 nM.
For `CCC(=O)N1CCC(Cn2cncc2Cn2cc(C(=O)N(C)CCOC)c(-c3cccc4ccccc34)c2)CC1` [Compound 18, 3-[N-(2-Methoxyethyl)-N-methyl]carbamoyl-4-(naphthalen-1-yl)-1-[1-(1-propionyl-piperidin-4-ylmethyl)-1H-imidazol-5-ylmethyl]-1H-pyrrole], the IC50 is 10 to 1000 nM in experiment [1], 10 to 100 nM in experiment [2], 1 nM in experiment [3] and 1000 to 50000 nM in experiment [4].
For `COCCN(C)C(=O)c1cn(Cc2cncn2CC2CCN(C(=O)OCc3cccc4ccccc34)CC2)cc1-c1cccc2ccccc12` [Compound 19, 3-[N-(2-Methoxyethyl)-N-methyl]carbamoyl-4-(naphthalen-1-yl)-1-{1-[1-(1-naphthalen-1-ylmethyloxycarbonyl)piperidin-4-ylmethyl]-1H-imidazol-5-ylmethyl}-1H-pyrrole], the IC50 in experiment [1] is 20 nM; in experiment [2], 10 nM; in experiment [3] it was 7 nM; in experiment [4] it was 1000 to 10000 nM.
Turning to `COCCN(C)C(=O)c1cn(Cc2cncn2CC2CCN(C(=O)OCc3ccc4ccccc4c3)CC2)cc1-c1cccc2ccccc12` [Compound 20], the IC50 is 10 nM in experiment [1], 10 nM in experiment [2], 6 nM in experiment [3] and 1000 to 10000 nM in experiment [4].
Regarding `COCCN(C)C(=O)c1cn(Cc2cncn2CC2CCN(C(=O)OC/C=C(\C)CCC=C(C)C)CC2)cc1-c1cccc2ccccc12` [Compound 21], the IC50 in experiment [1] was 50 nM; in experiment [2] it was 10 to 100 nM; in experiment [3], 10 to 100 nM; in experiment [4] it was 1000 to 10000 nM.
With `COCCN(C)C(=O)c1cn(Cc2cncn2CC2CCN(C(=O)OCC=C(C)C)CC2)cc1-c1cccc2ccccc12` [Compound 22], the IC50 in experiment [1] is 20 nM; in experiment [2], 10 to 100 nM; in experiment [3], 9 nM; in experiment [4], 1000 to 10000 nM.
`COCCN(C)C(=O)c1cn(Cc2cncn2CC2CCN(C(=O)OCCC(C)C)CC2)cc1-c1cccc2ccccc12` [Compound 23]: the IC50 is 20 nM in experiment [1], 10 to 100 nM in experiment [2], 8 nM in experiment [3] and 1000 to 10000 nM in experiment [4].
Take `COCCN(C)C(=O)c1cn(Cc2cncn2CC2CCN(C(=O)OCc3ccc(F)cc3)CC2)cc1-c1cccc2ccccc12` [Compound 24]: the IC50 is 15 nM in experiment [1], 10 to 100 nM in experiment [2], 6 nM in experiment [3] and 1000 to 10000 nM in experiment [4].
Turning to `COCCN(C)C(=O)c1cn(Cc2cncn2CC2CCN(C(=O)OC/C=C/c3ccccc3)CC2)cc1-c1cccc2ccccc12` [Compound 25], the IC50 in experiment [1] is 27 nM; in experiment [2], less than 100 nM; in experiment [3], 6 nM; in experiment [4], 1000 to 10000 nM.
Take `COCCN(C)C(=O)c1cn(Cc2cncn2CC2CCN(C(=O)OCc3csc(C(C)C)n3)CC2)cc1-c1cccc2ccccc12` [Compound 26]: the IC50 is 10 to 100 nM in experiment [1], 10 to 100 nM in experiment [2], 4 nM in experiment [3] and 10000 to 50000 nM in experiment [4].
As for `COCCN(C)C(=O)c1cn(Cc2cncn2CC2CCN(C(=O)c3ccc4ccccc4c3)CC2)cc1-c1cccc2ccccc12` [Compound 27, 3-[N-(2-Methoxyethyl)-N-methyl]carbamoyl-4-(naphthalen-1-yl)-1-{1-[1-(naphthalen-2-ylcarbonyl)piperidin-4-ylmethyl]-1H-imidazol-5-ylmethyl}-1H-pyrrole], the IC50 was 15 nM in experiment [1], 10 to 100 nM in experiment [2], 9 nM in experiment [3] and 1000 to 10000 nM in experiment [4].
The matching figures for `COCCN(C)C(=O)c1cn(Cc2cncn2CC2CCN(C(=O)/C=C/c3ccccc3)CC2)cc1-c1cccc2ccccc12` [Compound 28]: 8 nM, 10 to 100 nM, 12 nM and 1000 to 10000 nM.
As to `COCCN(C)C(=O)c1cn(Cc2cncn2CC2CCN(C(=O)c3csc(C(C)C)n3)CC2)cc1-c1cccc2ccccc12` [Compound 29], the IC50 in experiment [1] is 10 to 100 nM; in experiment [2], 10 to 100 nM; in experiment [3], 2.5 nM; in experiment [4] it was 10000 to 50000 nM.
